Conditions: 283.15 K, Liquid, Vibrating tube method

FC(C(F)(F)F)C(F)(F)F [1,1,1,2,3,3,3-heptafluoropropane]
Conditions | mass density [kg/m3]
25072 kPa | 1552.4
25508 kPa | 1553.7
25593 kPa | 1553.9
25630 kPa | 1554.1
25722 kPa | 1554.3
25865 kPa | 1554.8
25945 kPa | 1555.1
25993 kPa | 1555.1
26030 kPa | 1555.3
26068 kPa | 1555.4
26113 kPa | 1555.4
26152 kPa | 1555.7
26191 kPa | 1555.8
26249 kPa | 1555.9
26283 kPa | 1556
26327 kPa | 1556.3
26367 kPa | 1556.3
26406 kPa | 1556.2
26446 kPa | 1556.3
26479 kPa | 1556.8
26519 kPa | 1556.7
26559 kPa | 1556.8
26599 kPa | 1557
26650 kPa | 1557.1
26683 kPa | 1557.3
26723 kPa | 1557.3
26757 kPa | 1557.3
26796 kPa | 1557.5
26886 kPa | 1557.8
26921 kPa | 1557.9
26968 kPa | 1558.1
27001 kPa | 1558.1
27029 kPa | 1558.2
27058 kPa | 1558.3
27082 kPa | 1558.3
27131 kPa | 1558.5
27170 kPa | 1558.7
27199 kPa | 1558.8
27228 kPa | 1558.8
27271 kPa | 1558.9
27533 kPa | 1559.8
27563 kPa | 1559.9
27596 kPa | 1559.8
27629 kPa | 1560
27673 kPa | 1560
27710 kPa | 1560.2
27743 kPa | 1560.2
27816 kPa | 1560.5
27850 kPa | 1560.7
27880 kPa | 1560.8
27914 kPa | 1560.8
27940 kPa | 1560.9
27979 kPa | 1561
28024 kPa | 1561.2
28058 kPa | 1561.1
28091 kPa | 1561.4
28124 kPa | 1561.5
28168 kPa | 1561.6
28466 kPa | 1562.5
28514 kPa | 1562.7
28558 kPa | 1562.7
28591 kPa | 1562.8
28620 kPa | 1562.8
28657 kPa | 1562.9
28690 kPa | 1563.1
28727 kPa | 1563.2
28761 kPa | 1563.3
28795 kPa | 1563.4
28837 kPa | 1563.6
28875 kPa | 1563.5
29088 kPa | 1564.2
29357 kPa | 1565
29424 kPa | 1565.2
29452 kPa | 1565.2
29578 kPa | 1565.7
29617 kPa | 1565.6
29646 kPa | 1565.8
29684 kPa | 1565.9
29712 kPa | 1565.9
29745 kPa | 1566.1
29784 kPa | 1566.2
29814 kPa | 1566.3
29853 kPa | 1566.4
29877 kPa | 1566.5
29911 kPa | 1566.5
29944 kPa | 1566.6
29974 kPa | 1566.7
30021 kPa | 1566.8
30050 kPa | 1567
30079 kPa | 1567
30151 kPa | 1567.2
30190 kPa | 1567.4
30219 kPa | 1567.5
30259 kPa | 1567.4
30288 kPa | 1567.5
30323 kPa | 1567.7
30361 kPa | 1567.8
30390 kPa | 1567.7
30425 kPa | 1567.9
30460 kPa | 1567.9
30499 kPa | 1568.2
30529 kPa | 1568.3

From the NIST ThermoML archive (doi:10.1021/je700260f)
